Measurements as given in DBAASP.
In brackets after ≈: the same amount, converted by molar mass.

Legend:
Test in all cases: ≥ marks a high value that may be exact or a test limit, other limits are often not marked, values filed in µg/mL are converted to µM
[1] = system: Pseudomonas aeruginosa Ps4
[2] = system: Pseudomonas aeruginosa
[3] = system: Staphylococcus aureus
[4] = system: Candida albicans F7-39/IDE99
[5] = system: Bacillus subtilis 168
[6] = system: Escherichia coli B
[7] = system: Bacillus subtilis
[8] = system: Escherichia coli K88
[9] = system: Acinetobacter baumannii
[10] = system: Escherichia coli UB1005
[11] = system: Escherichia coli K99
[12] = system: Klebsiella pneumoniae
[13] = system: Pseudomonas aeruginosa CICC 21630
[14] = system: Salmonella enterica subsp. enterica serovar Typhimurium ATCC 14028
[15] = system: Pseudomonas aeruginosa ATCC 27853
[16] = system: Pseudomonas aeruginosa PAO1
[17] = system: Pseudomonas aeruginosa CICC 21625
[18] = system: Salmonella enterica subsp. enterica serovar Typhimurium C77-31
[19] = system: Escherichia coli
[20] = system: Salmonella enterica subsp. enterica serovar Pullorum C79-13
[21] = system: Escherichia coli ATCC 25922
[22] = system: Staphylococcus aureus ATCC 12600
[23] = system: Escherichia coli ATCC 11775
[24] = system: Candida albicans
[25] = system: Staphylococcus epidermidis
[26] = system: Staphylococcus aureus ATCC 25923
[27] = system: Pseudomonas aeruginosa H103
[28] = system: Enterococcus faecalis ATCC 29212
[29] = system: Salmonella enterica serovar Typhimurium

CC[C@H](C)[C@H](NC(=O)[C@H](CC(N)=O)NC(=O)[C@H](CCCN=C(N)N)NC(=O)[C@H](CCC(N)=O)NC(=O)[C@H](Cc1c[nH]c2ccccc12)NC(=O)[C@@H](NC(=O)[C@@H](N)Cc1ccccc1)[C@@H](C)CC)C(=O)N[C@@H](CCCN=C(N)N)C(=O)N[C@@H](CCCCN)C(=O)N[C@H](C(=O)N[C@@H](CCCN=C(N)N)C(N)=O)C(C)C [FIWQRNIRKVR]
MIC [1]: ≥ 165 µM

CC[C@H](C)[C@H](NC(=O)[C@H](CCCN=C(N)N)NC(=O)[C@H](Cc1c[nH]c2ccccc12)NC(=O)CNC(=O)[C@H](CCCN=C(N)N)NC(=O)[C@H](Cc1c[nH]c2ccccc12)NC(=O)[C@@H](N)Cc1ccccc1)C(=O)N[C@@H](CCCN=C(N)N)C(=O)N[C@@H](CCCN=C(N)N)C(N)=O [FWRGWRIRR]
MIC [1]: ≥ 93.8 µM

CC[C@H](C)[C@H](NC(=O)[C@H](Cc1cnc[nH]1)NC(=O)[C@H](CCCCN)NC(=O)[C@H](CC(C)C)NC(=O)[C@H](CC(C)C)NC(=O)[C@H](CCCCN)NC(=O)[C@H](CCSC)NC(=O)[C@H](Cc1c[nH]c2ccccc12)NC(=O)[C@H](CCCCN)NC(=O)CN)C(=O)N[C@@H](CC(C)C)C(=O)N[C@@H](CCCCN)C(N)=O [GKWMKLLKHILK]
MIC [2]: 10.7 µM (≈ 16 µg/mL) | MIC [3]: 4.5 µM (≈ 6.72 µg/mL) | MIC [4]: 4.5 µM (≈ 6.72 µg/mL) | MIC [5]: 0.8 µM (≈ 1.2 µg/mL) | MIC [6]: 2.5 µM (≈ 3.73 µg/mL)

CC[C@H](C)[C@H](NC(=O)[C@H](C)NC(=O)[C@H](C)NC(=O)[C@H](CC(C)C)NC(=O)[C@@H](NC(=O)[C@H](CCCCN)NC(=O)[C@H](CCCN=C(N)N)NC(=O)[C@@H]1CCCN1C(=O)[C@H](CC(C)C)NC(=O)CN)[C@@H](C)CC)C(=O)N[C@@H](C)C(=O)N[C@@H](CCCCN)C(=O)N[C@@H](CCCCN)C(=O)N[C@@H](CCCCN)C(N)=O [GLPRKILAAIAKKK]
MIC [2]: > 100 µM | MIC [3]: > 100 µM | MIC [4]: ≥ 100 µM | MIC [7]: ≥ 35 µM | MIC [6]: ≥ 100 µM

CC[C@H](C)[C@H](N)C(=O)N[C@@H](CCCCN)C(=O)N1CCC[C@H]1C(=O)N[C@H](C(=O)N[C@H](C(=O)N[C@@H](CCCCN)C(=O)N1CCC[C@H]1C(=O)N[C@H](C(=O)N[C@H](C(=O)N[C@@H](CCCCN)C(=O)N1CCC[C@H]1C(=O)N[C@H](C(=O)N[C@H](C(=O)N[C@@H](CCCCN)C(=O)N1CCC[C@H]1C(=O)N[C@H](C(=O)N[C@H](C(=O)N[C@@H](CCCCN)C(=O)N1CCC[C@H]1C(=O)N[C@H](C(=O)N[C@H](C(=O)N[C@@H](CCCCN)C(=O)N1CCC[C@H]1C(=O)N[C@H](C(=O)N[C@H](C(=O)N[C@@H](CCCCN)C(=O)N1CCC[C@H]1C(=O)N[C@H](C(N)=O)[C@@H](C)CC)[C@@H](C)CC)[C@@H](C)CC)[C@@H](C)CC)[C@@H](C)CC)[C@@H](C)CC)[C@@H](C)CC)[C@@H](C)CC)[C@@H](C)CC)[C@@H](C)CC)[C@@H](C)CC)[C@@H](C)CC)[C@@H](C)CC [IKPIIKPIIKPIIKPIIKPIIKPIIKPI]
MIC [8]: 2 µM (≈ 6.36 µg/mL) | MIC [9]: 2 µM (≈ 6.36 µg/mL) | MIC [2]: > 64 µM | MIC [10]: 16 µM (≈ 50.9 µg/mL) | MIC [11]: 2 µM (≈ 6.36 µg/mL) | MIC [12]: 16 µM (≈ 50.9 µg/mL) | MIC [13]: ≥ 64 µM | MIC [14]: 64 µM (≈ 203 µg/mL) | MIC [15]: > 64 µM | MIC [16]: > 64 µM | MIC [17]: ≥ 64 µM | MIC [18]: ≥ 64 µM | MIC [19]: 16 µM (≈ 50.9 µg/mL) | MIC [20]: ≥ 64 µM | MIC [21]: 8 µM (≈ 25.4 µg/mL)

CC[C@H](C)[C@H](N)C(=O)N[C@@H](CC(C)C)C(=O)N1CCC[C@H]1C(=O)N[C@H](C(=O)N[C@@H](CC(C)C)C(=O)N[C@@H](C)C(=O)N1CCC[C@H]1C(=O)N[C@@H](CC(C)C)C(=O)N[C@H](C(=O)NCC(=O)NCC(=O)N[C@@H](CC(C)C)C(=O)N[C@@H](CC(C)C)C(N)=O)[C@@H](C)CC)[C@@H](C)CC [ILPILAPLIGGLL]
MIC [22]: ≥ 100 µM | MIC [23]: ≥ 100 µM

CC[C@H](C)[C@H](N)C(=O)N[C@@H](Cc1c[nH]c2ccccc12)C(=O)N[C@@H](CCC(N)=O)C(=O)N[C@@H](CCCN=C(N)N)C(=O)N[C@@H](CC(N)=O)C(=O)N[C@H](C(=O)N[C@@H](CCCN=C(N)N)C(=O)N[C@H](C(=O)N[C@@H](CCCN=C(N)N)C(=O)N[C@@H](CCCN=C(N)N)C(N)=O)[C@@H](C)CC)[C@@H](C)CC [IWQRNIRIRR]
MIC [1]: ≥ 177 µM

CC(C)C[C@H](NC(=O)[C@@H]1CCCN1C(=O)[C@H](CCCCN)NC(=O)[C@H](CC(C)C)NC(=O)[C@H](CC(C)C)NC(=O)[C@@H]1CCCN1C(=O)[C@H](CCCCN)NC(=O)[C@H](CC(C)C)NC(=O)[C@H](CC(C)C)NC(=O)[C@@H]1CCCN1C(=O)[C@H](CCCCN)NC(=O)[C@H](CC(C)C)NC(=O)[C@H](CC(C)C)NC(=O)[C@@H]1CCCN1C(=O)[C@H](CCCCN)NC(=O)[C@@H](N)CC(C)C)C(N)=O [LKPLLKPLLKPLLKPL]
MIC [8]: 16 µM (≈ 29.2 µg/mL) | MIC [9]: 4 µM (≈ 7.29 µg/mL) | MIC [2]: > 64 µM | MIC [10]: 16 µM (≈ 29.2 µg/mL) | MIC [11]: 16 µM (≈ 29.2 µg/mL) | MIC [12]: > 64 µM | MIC [13]: ≥ 64 µM | MIC [14]: > 64 µM | MIC [15]: > 64 µM | MIC [16]: > 64 µM | MIC [17]: ≥ 64 µM | MIC [18]: ≥ 64 µM | MIC [19]: 32 µM (≈ 58.4 µg/mL) | MIC [20]: ≥ 32 µM | MIC [21]: 16 µM (≈ 29.2 µg/mL)

CC(C)C[C@H](NC(=O)[C@@H]1CCCN1C(=O)[C@H](CCCN=C(N)N)NC(=O)[C@H](CC(C)C)NC(=O)[C@H](CC(C)C)NC(=O)[C@@H]1CCCN1C(=O)[C@H](CCCN=C(N)N)NC(=O)[C@H](CC(C)C)NC(=O)[C@H](CC(C)C)NC(=O)[C@@H]1CCCN1C(=O)[C@H](CCCN=C(N)N)NC(=O)[C@H](CC(C)C)NC(=O)[C@H](CC(C)C)NC(=O)[C@@H]1CCCN1C(=O)[C@H](CCCN=C(N)N)NC(=O)[C@@H](N)CC(C)C)C(N)=O [LRPLLRPLLRPLLRPL]
MIC [8]: 8 µM (≈ 15.5 µg/mL) | MIC [9]: 2 µM (≈ 3.87 µg/mL) | MIC [2]: > 64 µM | MIC [10]: ≥ 32 µM | MIC [11]: ≥ 32 µM | MIC [12]: > 64 µM | MIC [13]: ≥ 64 µM | MIC [14]: 32 µM (≈ 61.9 µg/mL) | MIC [15]: > 64 µM | MIC [16]: > 64 µM | MIC [17]: ≥ 64 µM | MIC [18]: ≥ 64 µM | MIC [19]: 16 µM (≈ 31 µg/mL) | MIC [20]: 8 µM (≈ 15.5 µg/mL) | MIC [21]: 8 µM (≈ 15.5 µg/mL)

CC[C@H](C)[C@H](NC(=O)[C@H](CCCN=C(N)N)NC(=O)[C@@H](NC(=O)[C@H](Cc1c[nH]c2ccccc12)NC(=O)[C@H](CCCN=C(N)N)NC(=O)[C@H](CCCN=C(N)N)NC(=O)[C@@H](N)CC(C)C)[C@@H](C)CC)C(=O)N[C@@H](CCCN=C(N)N)C(=O)N[C@@H](Cc1c[nH]c2ccccc12)C(=O)O [LRRWIRIRW]
MIC [24]: 10.7 µM (≈ 14.5 µg/mL) | MIC [10]: 0.7 µM (≈ 0.948 µg/mL) | MIC [25]: 0.883 µM (≈ 1.2 µg/mL) | MIC [26]: 1.3 µM (≈ 1.76 µg/mL) | MIC [27]: 21.4 µM (≈ 29 µg/mL) | MIC [28]: 5.4 µM (≈ 7.32 µg/mL) | MIC [29]: 5.4 µM (≈ 7.32 µg/mL)

CC[C@H](C)[C@H](NC(=O)[C@H](CC(N)=O)NC(=O)[C@H](CCCN=C(N)N)NC(=O)[C@H](CCC(N)=O)NC(=O)[C@H](Cc1c[nH]c2ccccc12)NC(=O)[C@@H](N)CCCN=C(N)N)C(=O)N[C@@H](CCCN=C(N)N)C(=O)N[C@@H](CCCCN)C(=O)N[C@@H](Cc1ccc(O)cc1)C(=O)N[C@@H](CCCN=C(N)N)C(=O)N[C@@H](CCCN=C(N)N)C(N)=O [RWQRNIRKYRR]
MIC [1]: ≥ 153 µM

CC[C@H](C)[C@H](NC(=O)[C@H](CCCN=C(N)N)NC(=O)[C@H](CC(C)C)NC(=O)[C@H](CCCN=C(N)N)NC(=O)[C@@H](N)C(C)C)C(=O)N[C@@H](CCCN=C(N)N)C(=O)N[C@H](C(=O)N[C@@H](CCCN=C(N)N)C(=O)N[C@H](C(=O)N[C@H](C(=O)N[C@@H](CCCN=C(N)N)C(=O)N[C@@H](CCCCN)C(=O)O)[C@@H](C)CC)C(C)C)C(C)C [VRLRIRVRVIRK]
MIC [24]: 8 µM (≈ 12.5 µg/mL) | MIC [10]: 2 µM (≈ 3.13 µg/mL) | MIC [25]: 1 µM (≈ 1.56 µg/mL) | MIC [26]: 1 µM (≈ 1.56 µg/mL) | MIC [27]: 2 µM (≈ 3.13 µg/mL) | MIC [28]: 4 µM (≈ 6.26 µg/mL) | MIC [29]: 2 µM (≈ 3.13 µg/mL)
